Laboratory results reported in US20130317027A1, “COMPOUNDS AND THERAPEUTIC USES THEREOF” (Myrexis, Inc, priority 2010, published 2013).
Read-outs that look alike come from different tables or passages of the source.

Key:
[1] = system: cancer cell lines; assay: Cytotoxicity in a wide variety of cancer cell types (TC50, CellTiter-Glo, 72 or 96 hours); conditions: read-out: TC50
Protocol: Exponentially growing cells were plated in fresh growth media in a 96-well black, flat, clear-bottomed polystyrene microtiter plate (Packard View Plate 6005182). Twenty-four hours later, compounds were added from serial dilutions prepared in DMSO from 50 mM DMSO stock solutions. Each concentration of inhibitor was tested in duplicate at a final DMSO concentration of 0.4%. After 72 or 96 hours incubation, cell viability was quantified by measuring intracellular ATP levels using CellTiter-Glo (Promega). Luminescence data was collected on a TopCount NXT plate reader (PerkinElmer). Experimental values were normalized to solvent controls and plotted versus compound concentration to determine the concentration required for a 50% reduction in cell viability.

[2] = system: cell lines (cancer, normal and primary cells); assay: NA Rescue assay (cytotoxicity with nicotinic acid added); format: cell-based; conditions: fixed dose
Protocol: Cell lines were treated with a fixed dose of Exemplary Compound A and screened for NA rescue and Naprt1 expression by immunoblotting and quantitative RT-PCR (Table 7). […] The 176 cell lines included 5 normal (non-cancerous) cells and 3 primary cells (italicized in the table), all of which rescued. Naprt1 was quantified by western blotting and q-RT-PCR in 164 and 123 of the 176 cell lines, respectively. […] A statistically significant (p value <0.0001) correlation existed between NA rescue phenotype and Naprt1 protein or mRNA expression levels.
Additional cancer cell lines were treated with Exemplary Compounds A, C, D, E, F, G and H (identified below) (Table 8). The NA rescue phenotype of a particular cancer cell line was maintained for all Nampt inhibitors tested.

[3] = system: Cancer cell lines (SCLC, glioma, colon cancer and others)
Protocol: Experiments were conducted in HCT116 cells. […] For compound combination analyses, the MacSynergy™ II protocol and program were utilized, following the recommendations of the developers (Prichard and Shipman, 1990). Prior to combinations of compounds, dose curves of cells treated with a single compound were generated to define relevant compound doses to use in the combination analysis. Typically, relevant doses were those found in the inflection portion of a sigmoidal dose-response curve. Utilizing these optimized conditions, cells were dosed with Nampt inhibitor plus the test compound at a variety of concentrations of each, and viability was assessed using CellTiter-Glo. Data was processed using the MacSynergy™ II algorithm, which subtracted from actual data a prediction of compound additivity. Thresholds for meaningful synergy were defined based upon the recommendations of the developers (Prichard and Shipman, 1990).
Cancer cell lines used in these studies represented cancer types found to be sensitive to Nampt inhibition [e.g. non-Hodgkins lymphoma, multiple myeloma, glioma, non-small cell lung carcinoma (NSCLC), small cell lung carcinoma (SCLC), ovarian cancer and colorectal cancer].

O=C(NCc1cccnc1)Nc1ccc(COc2ccccc2-c2ccccc2)cc1 [Exemplary Compound A]
CC50 ([1]; A172 cells, glioma, 3 DAY): 1.1 nM
CC50 ([1]; COLO205 cells, colon, 3 DAY): 0.5 nM
CC50 ([1]; COLO205 cells, colon, 7 DAY): 0.3 nM
CC50 ([1]; DB cells, lymphoma, 3 DAY): 3.5 nM
CC50 ([1]; DMS-114 cells, SCLC, 3 DAY): 0.16 nM
CC50 ([1]; DU145 cells, prostate, 3 DAY): 3.9 nM
CC50 ([1]; DU145 cells, prostate, 7 DAY): 2.7 nM
CC50 ([1]; DU4475 cells, breast, 3 DAY): 0.1 nM
CC50 ([1]; DU4475 cells, breast, 7 DAY): 0.1 nM
CC50 ([1]; HCC827 cells, NSCLC, 3 DAY): 8 nM
CC50 ([1]; HCC827 cells, NSCLC, 7 DAY): 1.5 nM
CC50 ([1]; HCT116 cells, colon, 3 DAY): 0.6 nM
CC50 ([1]; HCT116 cells, colon, 7 DAY): 0.4 nM
CC50 ([1]; HCT-15 cells, colon, 3 DAY): 0.7 nM
CC50 ([1]; HCT-15 cells, colon, 7 DAY): 1 nM
CC50 ([1]; HOP92 cells, NSCLC, 3 DAY): 17 nM
CC50 ([1]; HOP92 cells, NSCLC, 7 DAY): 4.3 nM
CC50 ([1]; HT29 cells, colon, 3 DAY): 1.4 nM
CC50 ([1]; HT29 cells, colon, 7 DAY): 1.1 nM
CC50 ([1]; HT1080 cells, sarcoma, 3 DAY): 1 nM
CC50 ([1]; HT1080 cells, sarcoma, 7 DAY): 0.6 nM
CC50 ([1]; KM12 cells, colon, 3 DAY): 0.9 nM
CC50 ([1]; KM12 cells, colon, 7 DAY): 0.4 nM
CC50 ([1]; MDA-MB-231 cells, breast, 3 DAY): 10 nM
CC50 ([1]; MDA-MB-231 cells, breast, 7 DAY): 7.5 nM
CC50 ([1]; MIA PaCa-2 cells, pancreatic, 3 DAY): 1.8 nM
CC50 ([1]; MIA PaCa-2 cells, pancreatic, 7 DAY): 0.4 nM
CC50 ([1]; NCI-H69 cells, SCLC, 3 DAY): 1 nM
CC50 ([1]; NCI-H82 cells, SCLC, 3 DAY): 1.1 nM
CC50 ([1]; NCI-H460 cells, NSCLC, 3 DAY): 15.4 nM
CC50 ([1]; NCI-H522 cells, NSCLC, 3 DAY): 1 nM
CC50 ([1]; NCI-H522 cells, NSCLC, 7 DAY): 0.4 nM
CC50 ([1]; NCI-H929 cells, myeloma, 3 DAY): 2.5 nM
CC50 ([1]; NCI-H1650 cells, NSCLC, 3 DAY): 2.5 nM
CC50 ([1]; NCI-N87 cells, gastric, 3 DAY): 0.3 nM
CC50 ([1]; NCI-N87 cells, gastric, 7 DAY): 0.2 nM
CC50 ([1]; OCI-Ly19 cells, lymphoma, 3 DAY): 1.2 nM
CC50 ([1]; OPM-2 cells, myeloma, 3 DAY): 1.5 nM
CC50 ([1]; OVCAR3 cells, ovarian, 3 DAY): 1.1 nM
CC50 ([1]; OVCAR3 cells, ovarian, 7 DAY): 0.4 nM
CC50 ([1]; SF-295 cells, glioma, 3 DAY): 1.5 nM
CC50 ([1]; SU-DHL-4 cells, lymphoma, 3 DAY): 1.5 nM
CC50 ([1]; SU-DHL-5 cells, lymphoma, 3 DAY): 0.9 nM
CC50 ([1]; U-87MG cells, glioma, 3 DAY): 23 nM
NA rescue ([2]; A549 cells, lung (NSCLC)): yes
NA rescue ([2]; ACHN cells, kidney): yes
NA rescue ([2]; AsPC-1 cells, pancreas): yes
NA rescue ([2]; BEAS-2B cells, lung (normal)): yes
NA rescue ([2]; BT-474 cells, breast): yes
NA rescue ([2]; BxPC-3 cells, pancreas): yes
NA rescue ([2]; CCRF-CEM cells, lymphocytic leukemia): yes
NA rescue ([2]; CFPAC-1 cells, pancreas): yes
NA rescue ([2]; CHLA-90 cells, brain, neuroblastoma): no
NA rescue ([2]; Calu-1 cells, lung (NSCLC)): yes
NA rescue ([2]; Calu-6 cells, lung (NSCLC)): yes
NA rescue ([2]; Capan-1 cells, pancreas): yes
NA rescue ([2]; DBTRG-05MG cells, brain, glioblastoma): yes
NA rescue ([2]; DEL cells, lymphoma): partial
NA rescue ([2]; DU145 cells, prostate): yes
NA rescue ([2]; DU4475 cells, breast): yes
NA rescue ([2]; Daoy cells, brain, medulloblastoma): yes
NA rescue ([2]; Daudi cells, lymphoma): no
NA rescue ([2]; EKVX cells, lung (NSCLC)): yes
NA rescue ([2]; H4 cells, brain, neuroglioma): partial
NA rescue ([2]; H9 cells, lymphoma): no
NA rescue ([2]; HCC78 cells, lung (NSCLC)): no
NA rescue ([2]; HOP18 cells, lung (NSCLC)): yes
NA rescue ([2]; HOP62 cells, lung (NSCLC)): yes
NA rescue ([2]; HOP92 cells, lung (NSCLC)): yes
NA rescue ([2]; HOS cells, osteosarcoma): no
NA rescue ([2]; HepG2 cells, hepatocellular carcinoma): no
NA rescue ([2]; Hs683 cells, brain, glioma): yes
NA rescue ([2]; Hs766T cells, pancreas): yes
NA rescue ([2]; Huh7 cells, hepatocellular carcinoma): yes
NA rescue ([2]; IMR-32 cells, brain, neuroblastoma): no
NA rescue ([2]; IMR-90 cells, lung (normal)): yes
NA rescue ([2]; JJN3 cells, myeloma (plasma cell leukemia)): yes
NA rescue ([2]; Jurkat cells, lymphocytic leukemia): yes
NA rescue ([2]; KARPAS-299 cells, lymphocytic leukemia): no
NA rescue ([2]; KELLY cells, brain, oligodendroglioma): no
NA rescue ([2]; KNS-42 cells, brain, glioma): no
NA rescue ([2]; L-82 cells, lymphoma): yes
NA rescue ([2]; LA-N-6 cells, brain, neuroblastoma): yes
NA rescue ([2]; LNCAP cells, prostate): yes
NA rescue ([2]; M059J cells, brain, malignant glioblastoma, glioma): no
NA rescue ([2]; MALME-3 cells, skin (normal)): yes
NA rescue ([2]; MG-63 cells, osteosarcoma): no
NA rescue ([2]; MM.1S cells, myeloma): yes
NA rescue ([2]; MOLP-8 cells, myeloma): partial
NA rescue ([2]; MOLT4 cells, lymphocytic leukemia): yes
NA rescue ([2]; MONO-MAC-6 cells, lymphocytic leukemia): partial
NA rescue ([2]; MRC-5 cells, lung (normal)): yes
NA rescue ([2]; NAMALWA cells, lymphoma): no
NA rescue ([2]; NCI-H23 cells, lung (NSCLC)): yes
NA rescue ([2]; NCI-H69 cells, lung (small cell)): no
NA rescue ([2]; NCI-H146 cells, lung (small cell)): yes
NA rescue ([2]; NCI-H209 cells, lung (small cell)): yes
NA rescue ([2]; NCI-H226 cells, lung (NSCLC)): yes
NA rescue ([2]; NCI-H322 cells, lung (NSCLC)): no
NA rescue ([2]; NCI-H345 cells, lung (small cell)): yes
NA rescue ([2]; NCI-H441 cells, lung (NSCLC)): yes
NA rescue ([2]; NCI-H596 cells, lung (NSCLC)): partial
NA rescue ([2]; NCI-H1299 cells, lung (NSCLC)): yes
NA rescue ([2]; NCI-H1437 cells, lung (NSCLC)): yes
NA rescue ([2]; NCI-H1568 cells, lung (NSCLC)): yes
NA rescue ([2]; NCI-H1792 cells, lung (NSCLC)): yes
NA rescue ([2]; NCI-H1944 cells, lung (NSCLC)): yes
NA rescue ([2]; NCI-H1993 cells, lung (NSCLC)): yes
NA rescue ([2]; OVCAR-3 cells, ovary): yes
NA rescue ([2]; PBMC, primary blood): yes
NA rescue ([2]; PFSK-1 cells, brain, malignant neuroectodermal tumor): partial
NA rescue ([2]; Panc-1 cells, pancreas): yes
NA rescue ([2]; RPMI-8226 cells, myeloma): partial
NA rescue ([2]; Ramos cells, lymphoma): yes
NA rescue ([2]; SAEC, primary lung): yes
NA rescue ([2]; SF-268 cells, brain, astrocytoma, anaplastic): no
NA rescue ([2]; SF-539 cells, brain, gliosarcoma): yes
NA rescue ([2]; SH-SY5Y cells, brain, neuroblastoma, bone marrow met.): no
NA rescue ([2]; SHP-77 cells, lung (small cell)): yes
NA rescue ([2]; SJSA1 cells, osteosarcoma): yes
NA rescue ([2]; SK-ES-1 cells, osteosarcoma): yes
NA rescue ([2]; SK-N-FI cells, brain, neuroblastoma, bone marrow met.): no
NA rescue ([2]; SK-N-MC cells, brain, neuroepithelioma, supra-orbital met.): no
NA rescue ([2]; SK-N-SH cells, brain, neuroblastoma, metastatic): no
NA rescue ([2]; SMS-KCNR cells, brain, neuroblastoma, ALK (R1275Q).): yes
NA rescue ([2]; SNB-19 cells, brain, glioblastoma): no
NA rescue ([2]; SNU182 cells, hepatocellular carcinoma): yes
NA rescue ([2]; SNU449 cells, hepatocellular carcinoma): yes
NA rescue ([2]; SR-786 cells, lymphoma): no
NA rescue ([2]; SU-DHL-1 cells, lymphoma): no
NA rescue ([2]; SU-DHL-10 cells, lymphoma): yes
NA rescue ([2]; SW1088 cells, brain, astrocytoma): yes
NA rescue ([2]; SW1783 cells, brain, astrocytoma): yes
NA rescue ([2]; Saos-2 cells, osteosarcoma): yes
NA rescue ([2]; T24 cells, bladder): yes
NA rescue ([2]; THP-1 cells, lymphocytic leukemia): yes
NA rescue ([2]; U251 cells, brain, glioblastoma): no
NA rescue ([2]; U-2 OS cells, osteosarcoma): no
NA rescue ([2]; U-937 cells, lymphoma): yes
NA rescue ([2]; UWB1.289 cells, ovary): yes
NA rescue ([2]; Wi-38 cells, lung (normal)): yes
cell lines that completely rescued with NA ([2]; of 176 cell lines tested): 113
cell lines that did not rescue with NA ([2]; of 176 cell lines tested): 47
cell lines that partially rescued with NA ([2]; of 176 cell lines tested): 16
NA rescue ([2]; keratinocytes, primary skin): yes
NA rescue ([2]; no. 10 cells, brain, glioma, anaplastic): no
NA rescue ([2]; no. 11 cells, brain, glioma, anaplastic): partial
cytotoxicity in combination with 4HC [3]: Synergistic cytotoxicity
cytotoxicity in combination with 5-FU [3]: Synergistic cytotoxicity
cytotoxicity in combination with temozolomide [3]: Synergistic cytotoxicity
